Laboratory results reported in paper PMC6002953 (ACS chemical neuroscience, 2017).
Where two headings read alike, the source gives them in different places. One block for each molecule: values may come before it.

Tests used:
[1] = target: T1, human OX1 receptor (Homo sapiens, UniProt O43613); assay: Calcium mobilization Ke assay, OX1; type: cell-based; settings: for OX2/OX1: ratio of Ke values OX2/OX1
T1 sequence (O43613 1-425): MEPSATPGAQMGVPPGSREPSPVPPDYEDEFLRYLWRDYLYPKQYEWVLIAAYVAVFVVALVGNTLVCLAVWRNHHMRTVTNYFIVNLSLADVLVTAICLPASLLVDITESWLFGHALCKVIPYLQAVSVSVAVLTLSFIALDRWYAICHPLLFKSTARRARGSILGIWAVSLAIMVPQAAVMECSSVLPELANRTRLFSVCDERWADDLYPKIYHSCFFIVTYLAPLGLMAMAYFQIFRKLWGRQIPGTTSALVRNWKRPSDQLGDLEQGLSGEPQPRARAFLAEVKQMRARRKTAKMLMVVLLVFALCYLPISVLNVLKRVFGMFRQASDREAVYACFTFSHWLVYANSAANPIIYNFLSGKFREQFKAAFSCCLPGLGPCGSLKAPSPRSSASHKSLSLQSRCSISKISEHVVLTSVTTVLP

[2] = target: T2, human OX2 receptor (Homo sapiens, UniProt O43614); assay: Calcium mobilization Ke assay, OX2; type: cell-based; settings: for inhibition at 10 µM: read-out: Ke (OX2, nM) column: inhibition at 10 μM final concentration
T2 sequence (O43614 1-444): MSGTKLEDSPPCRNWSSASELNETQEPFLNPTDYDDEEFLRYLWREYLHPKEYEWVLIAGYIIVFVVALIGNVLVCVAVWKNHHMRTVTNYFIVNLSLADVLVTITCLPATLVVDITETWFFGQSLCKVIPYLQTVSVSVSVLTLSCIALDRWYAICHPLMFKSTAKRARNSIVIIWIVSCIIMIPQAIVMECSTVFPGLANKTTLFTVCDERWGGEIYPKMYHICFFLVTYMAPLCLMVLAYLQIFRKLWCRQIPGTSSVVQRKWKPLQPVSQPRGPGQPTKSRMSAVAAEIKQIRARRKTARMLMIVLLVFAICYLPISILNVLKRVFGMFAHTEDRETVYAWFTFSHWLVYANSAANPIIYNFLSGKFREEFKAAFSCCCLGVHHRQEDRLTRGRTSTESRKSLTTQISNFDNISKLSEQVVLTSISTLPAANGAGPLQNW

[3] = test system: OX1; settings: cited from earlier work
[4] = Ke (OX1, nM), compound appeared insurmountable during standard assay procedure, incubation increased to 1 hour

Compound: CCCOc1cc2c(cc1OC)CCN(CC(=O)NCc1ccccc1)C2Cc1ccc2ccccc2c1 (centres unmarked) [Compound 12a, N-Benzyl-2-[6-methoxy-1-(naphthalen-2-ylmethyl)-7-propoxy-1,2,3,4-tetrahydroisoquinolin-2-yl]acetamide]
Kd [1]: 121 ± 35 nM
OX2/OX1 [1]: >82.6
inhibition at 10 µM [2]: < 50%

Compound: CCCOc1cc2c(cc1OC)CCN(CC(=O)NCc1ccccc1)C2Cc1ccc(C)c(C)c1 (centres unmarked) [Compound 12b, N-Benzyl-2-{1-[(3,4-dimethylphenyl)methyl]-6-methoxy-7-propoxy-1,2,3,4-tetrahydroisoquinolin-2-yl}acetamide]
Kd [1]: 28.8 ± 4.4 nM
OX2/OX1 [1]: >347
inhibition at 10 µM [2]: < 50%

Compound: CCCOc1cc2c(cc1OC)CCN(CC(=O)NCc1ccccc1)C2Cc1ccc(C(C)C)cc1 (centres unmarked) [Compound 12c, N-Benzyl-2-(6-methoxy-1-{[4-(propan-2-yl)phenyl]methyl}-7-propoxy-1,2,3,4-tetrahydroisoquinolin-2-yl)acetamide]
Kd [1]: 141 ± 42 nM
OX2/OX1 [1]: >70.9
inhibition at 10 µM [2]: < 50%

Compound: CCCOc1cc2c(cc1OC)CCN(CC(=O)NCc1ccccc1)C2Cc1ccc(N(C)C)cc1 (centres unmarked) [Compound 12d, N-Benzyl-2-(1-{[4-(dimethylamino)phenyl]methyl}-6-methoxy-7-propoxy-1,2,3,4-tetrahydroisoquinolin-2-yl)acetamide]
Kd [1]: 173 ± 5 nM
OX2/OX1 [1]: >58
Kd [2]: > 10000 nM

Compound: CCCOc1cc2c(cc1OC)CCN(CC(=O)NCc1ccccc1)C2Cc1cccc(N(C)C)c1 (centres unmarked) [Compound 12f, N-Benzyl-2-(1-{[3-(dimethylamino)phenyl]methyl}-6-methoxy-7-propoxy-1,2,3,4-tetrahydroisoquinolin-2-yl)acetamide]
Kd [1]: 20.6 ± 2.8 nM
OX2/OX1 [1]: >485
inhibition at 10 µM [2]: < 50%

Compound: CCCOc1cc2c(cc1OC)CCN(CC(=O)NCc1ccccc1)C2Cc1ccc(OCc2ccccn2)c(OC)c1 (centres unmarked) [Compound 12g, N-Benzyl-2-(6-methoxy-1-{[3-methoxy-4-(pyridin-2-ylmethoxy)phenyl]methyl}-7-propoxy-1,2,3,4-tetrahydroisoquinolin-2-yl)acetamide]
Kd [1]: 96.4 ± 34 nM
selectivity over OX2 ([1]; OX1 over OX2, calcium mobilization assays): > 100 fold
OX2/OX1 [1]: >104
Kd [2]: > 10000 nM

Compound: COc1cc2c(cc1OCC(F)(F)F)C(Cc1ccc3ccccc3c1)N(CC(=O)NCc1cccnc1)CC2 (centres unmarked) [Compound 15a, 2-[6-Methoxy-1-(naphthalen-2-ylmethyl)-7-(2,2,2-trifluoroethoxy)-1,2,3,4-tetrahydroisoquinolin-2-yl]-N-(pyridin-3-ylmethyl)acetamide]
Kd [1]: 29.5 ± 2.2 nM
OX2/OX1 [1]: 59
Kd [2]: 1750 ± 230 nM

Compound: COc1cc2c(cc1OCC(F)(F)F)C(Cc1ccc(C)c(C)c1)N(CC(=O)NCc1cccnc1)CC2 (centres unmarked) [Compound 15b, 2-{1-[(3,4-Dimethylphenyl)methyl]-6-methoxy-7-(2,2,2-trifluoroethoxy)-1,2,3,4-tetrahydroisoquinolin-2-yl}-N-(pyridin-3-ylmethyl)acetamide]
Kd [1]: 20.4 ± 2.9 nM
OX2/OX1 [1]: 67
Kd [2]: 1360 ± 150 nM

Compound: COc1cc2c(cc1OCC(F)(F)F)C(Cc1ccccn1)N(CC(=O)NCc1ccccc1)CC2 (centres unmarked) [Compound 19a, N-Benzyl-2-[6-methoxy-1-(pyridin-2-ylmethyl)-7-(2,2,2-trifluoroethoxy)-1,2,3,4-tetrahydroisoquinolin-2-yl]acetamide]
Kd [1, 4]: 884 ± 70 nM
OX2/OX1 [1]: >11
inhibition at 10 µM [2]: < 50%

Compound: COc1cc2c(cc1OCC(F)(F)F)C(Cc1cccnc1)N(CC(=O)NCc1ccccc1)CC2 (centres unmarked) [Compound 19b, N-Benzyl-2-[6-methoxy-1-(pyridin-3-ylmethyl)-7-(2,2,2-trifluoroethoxy)-1,2,3,4-tetrahydroisoquinolin-2-yl]acetamide]
Kd [1, 4]: > 10000 nM
inhibition at 10 µM [2]: < 50%

Compound: COc1cc2c(cc1OCC(F)(F)F)C(Cc1ccncc1)N(CC(=O)NCc1ccccc1)CC2 (centres unmarked) [Compound 19c, N-Benzyl-2-[6-methoxy-1-(pyridin-4-ylmethyl)-7-(2,2,2-trifluoroethoxy)-1,2,3,4-tetrahydroisoquinolin-2-yl]acetamide]
Kd [1, 4]: 1860 nM
OX2/OX1 [1]: >5.4
inhibition at 10 µM [2]: < 50%

Compound: COc1cc(CC2c3cc(OS(C)(=O)=O)c(OC)cc3CCN2CC(=O)NCc2ccccc2)ccc1OCc1ccccc1 (centres unmarked) [Compound 25a, 2-[(Benzylcarbamoyl)methyl]-1-{[4-(benzyloxy)-3-methoxyphenyl]methyl}-6-methoxy-1,2,3,4-tetrahydroisoquinolin-7-yl methanesulfonate]
Kd [1]: 43 ± 18 nM
OX2/OX1 [1]: >232
inhibition at 10 µM [2]: < 50%

Compound: CCCCOc1ccc(CC2c3cc(OS(C)(=O)=O)c(OC)cc3CCN2CC(=O)NCc2ccccc2)cc1OC (centres unmarked) [Compound 25b, 2-[(Benzylcarbamoyl)methyl]-1-[(4-butoxy-3-methoxyphenyl)methyl]-6-methoxy-1,2,3,4-tetrahydroisoquinolin-7-yl methanesulfonate]
Kd [1]: 5.24 ± 1 nM
OX2/OX1 [1]: 229
Kd [2]: 1200 nM

Compound: COc1cc2c(cc1N)C(Cc1ccc(OC)c(OC)c1)N(CC(=O)NCc1ccccc1)CC2 (centres unmarked) [Compound 33, 2-{7-Amino-1-[(3,4-dimethoxyphenyl)methyl]-6-methoxy-1,2,3,4-tetrahydroisoquinolin-2-yl}-N-benzylacetamide]
Kd [1]: 494 ± 32 nM
OX2/OX1 [1]: >20
Kd [2]: > 10000 nM

Compound: COc1ccc(CC2c3cc(N(C)C)c(OC)cc3CCN2CC(=O)NCc2ccccc2)cc1OC (centres unmarked) [Compound 34a, N-Benzyl-2-{1-[(3,4-dimethoxyphenyl)methyl]-7-(dimethylamino)-6-methoxy-1,2,3,4-tetrahydroisoquinolin-2-yl}acetamide]
Kd [1]: 31.2 ± 3.3 nM
OX2/OX1 [1]: >321
Kd [2]: > 10000 nM

Compound: COc1cc2c(cc1NCc1ccccc1)C(Cc1ccc(OC)c(OC)c1)N(CC(=O)NCc1ccccc1)CC2 (centres unmarked) [Compound 34b, N-Benzyl-2-[7-(benzylamino)-1-[(3,4-dimethoxyphenyl)methyl]-6-methoxy-1,2,3,4-tetrahydroisoquinolin-2-yl]acetamide]
Kd [1]: 352 ± 34 nM
OX2/OX1 [1]: >28
inhibition at 10 µM [2]: < 35%

Compound: COc1cc2c(cc1NC(C)=O)C(Cc1ccc(OC)c(OC)c1)N(CC(=O)NCc1ccccc1)CC2 (centres unmarked) [Compound 34c, N-Benzyl-2-{1-[(3,4-dimethoxyphenyl)methyl]-7-acetamido-6-methoxy-1,2,3,4-tetrahydroisoquinolin-2-yl}acetamide]
Kd [1]: 116 ± 44 nM
OX2/OX1 [1]: >86
Kd [2]: > 10000 nM

Compound: COc1cc2c(cc1NS(C)(=O)=O)C(Cc1ccc(OC)c(OC)c1)N(CC(=O)NCc1ccccc1)CC2 (centres unmarked) [Compound 34d, N-Benzyl-2-{1-[(3,4-dimethoxyphenyl)methyl]-7-methanesulfonamido-6-methoxy-1,2,3,4-tetrahydroisoquinolin-2-yl}acetamide]
Kd [1]: 128 ± 13 nM
OX2/OX1 [1]: >78
Kd [2]: > 10000 nM

Compound: CCCC(=O)Nc1cc2c(cc1OC)CCN(CC(=O)NCc1ccccc1)C2Cc1ccc(OC)c(OC)c1 (centres unmarked) [Compound 34e, N-{2-[(Benzylcarbamoyl)methyl]-1-[(3,4-dimethoxyphenyl)methyl]-6-methoxy-1,2,3,4-tetrahydroisoquinolin-7-yl}butanamide]
Kd [1]: 689 ± 73 nM
OX2/OX1 [1]: >14.5
Kd [2]: > 10000 nM

Kd [1]: > 10000 nM
Kd [2]: 592 ± 170 nM
Compound: COC(=O)Nc1cc(CC2c3cc(NC(=O)OC)c(OC)cc3CCN2CC(=O)NCc2ccccc2)ccc1OC (centres unmarked) [Compound 38, Methyl N-{2-[(Benzylcarbamoyl)methyl]-6-methoxy-1-({4-methoxy-3-[(methoxycarbonyl)amino]phenyl}methyl)-1,2,3,4-tetrahydroisoquinolin-7-yl}carbamate]

Compound: COc1ccc(CC2c3cc(N(C)C)c(OC)cc3CCN2CC(=O)NCc2ccccc2)cc1N(C)C (centres unmarked) [Compound 39, N-Benzyl-2-[7-(dimethylamino)-1-{[3-(dimethylamino)-4-methoxyphenyl]methyl}-6-methoxy-1,2,3,4-tetrahydroisoquinolin-2-yl]acetamide]
Kd [1]: 7.6 ± 2.8 nM
OX2/OX1 [1]: 113
Kd [2]: 857 ± 220 nM

Compound: COc1cc2c(cc1N(C)C)C(Cc1cccc(N(C)C)c1)N(CC(=O)NCc1ccccc1)CC2 (centres unmarked) [Compound 42, N-Benzyl-2-[7-(dimethylamino)-1-{[3-(dimethylamino)phenyl]methyl}-6-methoxy-1,2,3,4-tetrahydroisoquinolin-2-yl]acetamide]
Kd [1]: 148 ± 36 nM
OX2/OX1 [1]: 9.1
Kd [2]: 1360 nM

Compound: Cc1nc2ccc(NC(=O)Nc3ccnc4cccnc34)cc2o1 [SB334867]
selectivity over OX2 [3]: 50 ×
selectivity over OX2 ([3]; listed as 3): ~ 50 ×
IC50 ([3]; read-out: IC50 (OX1), commonly used OX1 antagonist): 40 nM
